In paper PMC7059629 (Letters in drug design & discovery, 2019):

Assays:
Format in all cases: cell-based
rat mGlu2/4 heterodimer = rat mGlu2/4 heterodimer (Rattus norvegicus, UniProt P31421+P31423); assay: mGlu2/4 heterodimer PAM thallium flux assay; details: for mGlu2/4 % Glu Max: ±SEM
rat mGlu2 = rat mGlu2 (Rattus norvegicus, UniProt P31421); assay: mGlu2 homodimer thallium flux assay; details: rat mGlu2-HEK293 cells, EC20 glutamate
homodimeric mGlu4 = homodimeric mGlu4 (Homo sapiens, UniProt Q14833); assay: mGlu4 Gqi5 calcium assay
[1] = rat mGlu2/4-HEK293 cells, thallium flux, EC20 glutamate

SMILES: NC(=O)[C@@H]1CCCC[C@@H]1C(=O)Nc1ccc(Cl)c(Cl)c1 [compound 5, Lu AF21934]
- mGlu2/4 % Glu Max (rat mGlu2/4 heterodimer; [1]): 89 % Glu Max

SMILES: Cc1nc(-c2ccc(OCC(C)C)c(C#N)c2)sc1C(=O)NC1CCOCC1 [11a, 2-(3-cyano-4-iosbutoxyphenyl)-4-methyl-N-(tetrahydro-2H-pyran-4-yl)thiazole-5-carboxamide]
- mGlu2/4 pEC50 (±SEM) (rat mGlu2/4 heterodimer; [1]): 5.28±0.03
- mGlu2/4 % Glu Max (rat mGlu2/4 heterodimer; [1]): 35±2 % Glu Max
- mGlu2 pEC50 (±SEM) (rat mGlu2): 5.32±0.02
- mGlu2 % Glu Max (rat mGlu2; ±SEM): 73±30 % Glu Max

SMILES: Cc1nc(-c2ccc(OCC(C)C)c(C#N)c2)sc1C(=O)O [compound 9, febuxostat]
- EC50 (rat mGlu2/4 heterodimer): 3.39 µM
- mGlu2/4 % Glu Max (rat mGlu2/4 heterodimer; [1]): 52.4±3.7 % Glu Max
- EC50 (homodimeric mGlu4): > 30 µM
